What all share (assay type): in vivo, human
In test [1] the test system is type 1 DM patients with nephropathy. Kind of test: 18-month multi-center, prospective, controlled study of CIIIT on progression of diabetic nephropathy. On the procedure:
A study was conducted to assess the effects of Chronic Intermittent Intravenous Insulin Therapy (CIIIT) on the progression of diabetic nephropathy in patients with type 1 diabetes mellitus (DM). This 18-month multi-center, prospective, controlled study involved 49 type 1 DM patients with nephropathy who were following the Diabetes Control and Complications Trial (DCCT) intensive therapy (IT) regimen. Of these, 26 patients formed the control group C, which continued on IT, while 23 patients formed the treatment group (T) and underwent, in addition to IT, weekly CIIIT. […] For all of the above listed examples, after the initial few days of treatment, the patients underwent treatment once a week, each treatment day consisting of three infusions of insulin accompanied by ingestion of carbohydrates. The infusion device used to infuse the insulin was the BIONICA MD-110 pump. Typically there were ten pulses given over a period of one hour, and a rest period of one hour was taken between infusions of insulin. The form in which the carbohydrates were ingested changed from time to time and included eating foods of high glycemic index including but not limited to bread and cake. The patients' circulating glucose was measured once every thirty minutes by the finger stick method currently used by most diabetic patients. […]

Test [2] has as its system diabetic patients with neuropathy. In words: Case reports: diabetic neuropathy treated with the subject method. The source says:
A middle-aged person with Type 1 diabetes for more than 22 years suffered from polyneuropathy. They had generalized pain and was unable to walk or even wear stockings because of the pain.
A middle-aged person with Type 1 diabetes for more than 30 years had severe peripheral neuropathy, was in constant pain below the knees and had difficulty sleeping at night. […] They have been using the treatment for eight years.
An elder type 2 diabetic patient had severe painful peripheral neuropathy to the point that they were unable to walk and used a wheelchair. […] Because of financial reasons, they stopped the therapy. As a result, the neuropathy returned, and they returned to using a wheelchair.
A middle-aged type 1 diabetic patient had severe neuropathy. They were a parent of two children who was bed-ridden with autonomic neuropathy before using the subject method two years ago. Their muscles had atrophied, they could not digest their food, they had been told that their nerves were dying inside them as a result of their diabetes. They stated that if they had not have two children, they would have taken their life. They had to quit their job, went on disability and was in an out of the hospital very often. They had welts on their head causing hair loss. They had no sensation in their feet, they had constant nausea, and they couldn't sleep at night because of the pain. They had insulin absorption problems and tried all different ways to improve the absorption of insulin into their body. For a number of years they injected themself intramuscularly because they felt that they obtained the best absorption of insulin that way. […] They have not been in the hospital since. […]
For all of the above listed examples, after the initial few days of treatment, the patients underwent treatment once a week, each treatment day consisting of three infusions of insulin accompanied by ingestion of carbohydrates. […] The patients' circulating glucose was measured once every thirty minutes by the finger stick method currently used by most diabetic patients. […]

Test [3] deals with diabetic patients with heart disease. In words: Case reports: diabetic heart disease treated with the subject method. The source says: A middle-aged person with type 2 diabetes for 17 years was suffering from severe dilated cardiomyopathy (ejection fraction 14-19%). They were placed on the list to receive a heart transplant prior to starting treatment with the subject method. […] The patient has been receiving treatment for 10 years and is still off the heart transplant list. Their ejection fraction is currently 29-32%.
A middle-aged type 2 diabetic patient had severe heart disease including congestive heart failure and severe artereosclerotic heart disease. The patient was scheduled for heart surgery but because of their poor condition, surgeons refused to operate.
An older type 1 diabetic patient who was diabetic was scheduled for a coronary artery by-pass graft to correct their diabetes related heart disease. The surgeons were reluctant to operate in the condition they were in because of their advanced diabetes related arteriosclerosis. They were scheduled for a single vessel graft. […] They continuing using the subject method for several years after the surgery with no further deterioration in their diabetes related heart disease.
(§1) For all of the above listed examples, after the initial few days of treatment, the patients underwent treatment once a week, each treatment day consisting of three infusions of insulin accompanied by ingestion of carbohydrates. The infusion device used to infuse the insulin was the BIONICA MD-110 pump. Typically there were ten pulses given over a period of one hour, and a rest period of one hour was taken between infusions of insulin. The form in which the carbohydrates were ingested changed from time to time and included eating foods of high glycemic index including but not limited to bread and cake. The patients' circulating glucose was measured once every thirty minutes by the finger stick method currently used by most diabetic patients. […] Table 1 below summarizes by the above examples the number of units of insulin per pulse administered and the amount of glucose ingested for each series of pulses: […]

For test [4], the system named is diabetic patients with retinopathy. In words: Case reports: retinopathy treated with the subject method. The source says: A middle-aged person with type 1 diabetes for 38 years suffered from macular degeneration (retinopathy). They were unable to drive at night. […] The patient has been receiving treatment for 4 years.
A middle-aged type 2 diabetic patient had proliferative diabetic retinopathy with severe bleeding. Multiple photocoagulation scars made additional photocoagulation impossible. […] The patient has been using the subject method for 5 years, and they have had no further bleeding of the retina and no further photocoagulation.
(§2) For all of the above listed examples, after the initial few days of treatment, the patients underwent treatment once a week, each treatment day consisting of three infusions of insulin accompanied by ingestion of carbohydrates. The infusion device used to infuse the insulin was the BIONICA MD-110 pump. Typically there were ten pulses given over a period of one hour, and a rest period of one hour was taken between infusions of insulin. The form in which the carbohydrates were ingested changed from time to time and included eating foods of high glycemic index including but not limited to bread and cake. The patients' circulating glucose was measured once every thirty minutes by the finger stick method currently used by most diabetic patients. […]

Test [5] deals with type 2 diabetic patient with diabetes related kidney disease. Kind of test: Case report: diabetes related kidney disease (proteinuria) treated with the subject method. To be noted: before treatment 1500 milligrams of protein during 24 hours, rising 500 milligrams/24 hours/year; 5 years of treatment. The procedure: An older type 2 diabetic was exercising and had excellent circulating glucose control under intense insulin therapy including 3-4 injections per day of subcutaneous insulin. Even so, their diabetes related kidney disease had progressed to the point where they were discharging 1500 milligrams of protein during a 24-hour period and the rate of increase was 500 milligrams/24 hours/year. After using the subject method, the patient's proteinuria was reduced to 600-800 milligrams/24 hours. They have been using the method for 5 years.
as §2

Test [6] deals with type 2 diabetic male suffering with autonomic neuropathy. Kind of test: Case report: elevated blood pressure with autonomic neuropathy treated with the subject method. The conditions noted are these: before treatment 200/120 despite intensive insulin therapy; 5 years of treatment.
Text: An older type 2 diabetic […] suffering with autonomic neuropathy had very elevated blood pressure readings of 200/120 despite a rigorous program to regulate their circulating glucose using intensive insulin therapy of 3 to 4 subcutaneous insulin injections daily. As a result of using the subject method, their blood pressure decreased to 120/80. They have been using the method for 5 years.
as §1

Test [7] has as its system diabetic patients with leg ulcers. In words: Case reports: diabetes related leg ulcers treated with the subject method. The conditions noted are these: ulcers not responding to any available therapy, Examples 10 and 11; listed as subject method.
Text: An older type 2 diabetic had one amputated leg as a result of diabetes related ulcers on that leg. They had developed ulcers on the other leg that would not respond to any available therapy and was in danger of losing the other leg to amputation. […] This patient used the subject method for several more years, and no additional ulcers formed.
A middle-aged type 1 diabetic patient had developed severe ulcers on both legs, which would not heal with any available treatment. […] The patient has been using the subject method now for 13 years.
as §2

In test [8] the test system is patients suffering from senile dementia. In words: Senile dementia in patients treated with Hepatic Activation / the present invention. The conditions noted are these: diabetic patients with senile dementia. An excerpt:
On many occasions patients who have been diabetics as well as having dementia have been treated with the method of the current invention. Dementia appears to be related to poor metabolism of glucose in the brain, which may well be the result of constricted flow of blood. This poor metabolism is at least in part the cause of the dementia.
A diabetic who was suffering from advanced senile dementia was placed in a nursing home because of excessive confusion, weakness, disorientation and lack of memory. Because the nursing home was not keeping up the strict four shot regimen needed by the patient for their diabetic blood sugar control, the patient's children removed the patient from the nursing home. The attending doctor recommended Hepatic Activation. Once the patient was activated, they returned to a totally independent living style.
For all of the above listed examples, after the initial few days of treatment, the patients underwent treatment once a week, each treatment day consisting of three infusions of insulin accompanied by ingestion of carbohydrates. The infusion device used to infuse the insulin was the BIONICA MD-110 pump. […] The patients' circulating glucose was measured once every thirty minutes by the finger stick method currently used by most diabetic patients. […]

A short description of test [9]: Circulating glucose by finger stick during insulin pulse treatments. To be noted: during the first treatment; all examples; finger stick every thirty minutes.
Text: as §1

Setting [10] is: type 1 patient with severe autonomic neuropathy, Example 14.

Entries after “also recorded” stand apart in the source; their conditions may differ.

For insulin [CIIIT], the “progression of diabetic nephropathy” value in test [1] (CIIIT added to IT in type 1 DM patients with overt nephropathy) is on record as “markedly reduce the progression of diabetic nephropathy”. In addition, the “rate of CrCl decline” value in test [1] (type 1 DM patients with nephropathy, 18 months, T group (weekly CIIIT added to IT, 23 patients) vs C group (IT alone, 26 patients), P=0.0343) amounted to 2.21±1.62 ml/min/yr. The “neuropathic pain after treatment” value in [2] (single patients with polyneuropathy / peripheral neuropathy, listed as subject method) was “the pain has been reduced to the point where the person enjoys rigorous exercise; also recorded: no longer takes pain medication and has no twinges of pain in their legs; also recorded: the pain had subsided to the point where they no longer used a wheelchair”. Moreover, in [2] (setting [10]), the gastroparesis entry is on record as “Her gastroparesis was reversed” and the numbness in legs entry was “The numbness in their legs has gone away”. For the same substance, the postoperative recovery result in test [3] (after by-pass surgery, Examples 6 and 8, listed as subject method) is “normal postoperative recovery”. In addition, the insulin intake in test [3] (same patient, Example 4, before treatment 150 units a day) is 24-26 units/day. The “cardiac condition / need or fitness for heart surgery” value in test [3] (single patients, Examples 4, 6, 8, listed as subject method) is listed as “no longer required a heart transplant; also recorded: could withstand 4-vessel by-pass surgery; also recorded: their condition improved to the point where the doctors performed two instead of one grafts”. Besides, in [3] (type 2 diabetic patient, severe dilated cardiomyopathy, before treatment 14-19%, after 10 years of treatment), the ejection fraction is reported as 29-32%. The eyesight result in test [4] (type 1 person, macular degeneration (retinopathy), unable to drive at night before treatment, 4 years of treatment) is recorded as “eyesight improved to the point where night driving was no longer a concern”. Also, the retinal bleeding entry in [4] (type 2 male, proliferative diabetic retinopathy with severe bleeding, 5 years of treatment) was “the bleeding stopped, and there was no further deterioration of the retina”. Further, the proteinuria in [5] is on record as 600-800 milligrams/24 hours. Moreover, in test [6], the blood pressure is 120/80. For the same substance, in test [7], the leg ulcers entry is “the ulcers on their second leg healed; also recorded: the ulcers healed and have never returned”. Besides, the senile dementia symptoms result in [8] (listed as Hepatic Activation) was “significant improvement in their motor skills, memory, and cognitive function”. In test [8] (listed as present invention), the senile dementia symptoms entry was “clearly shown improvement in confusion, weakness, disorientation, cognitive function and lack of memory”. The “rise of circulating glucose levels” value in test [9] was 100 to 150 mg/dL.

The record behind these values is patent US20050137522A1, “System for infusing insulin to a subject to improve impaired hepatic glucose processing” (priority 2003, published 2005).
